Source: patent US8742110B2, “Spiroxazolidinone compounds” (Merck Sharp & Dohme Corp., priority 2010, dated 2014)
pIC50: −log10 of the molar value. Counter-ions that a name gives are not always drawn.

Biological target: SSTR5 (Homo sapiens (Human), UniProt P35346)
Assay: SSTR5 binding assay
Conditions: CHO-K1 membranes expressing cloned human SSTR5
Outline: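 Competition binding on membranes from CHO-K1 cells stably expressing cloned human receptor, using radiolabeled somatostatin in 50 mM Tris-HCl pH 7.8 with EGTA, MgCl2 and protease inhibitors. Unlabeled compounds tested from 0.01 nM to 10,000 nM.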

Sequence of SSTR5 (P35346 whole entry): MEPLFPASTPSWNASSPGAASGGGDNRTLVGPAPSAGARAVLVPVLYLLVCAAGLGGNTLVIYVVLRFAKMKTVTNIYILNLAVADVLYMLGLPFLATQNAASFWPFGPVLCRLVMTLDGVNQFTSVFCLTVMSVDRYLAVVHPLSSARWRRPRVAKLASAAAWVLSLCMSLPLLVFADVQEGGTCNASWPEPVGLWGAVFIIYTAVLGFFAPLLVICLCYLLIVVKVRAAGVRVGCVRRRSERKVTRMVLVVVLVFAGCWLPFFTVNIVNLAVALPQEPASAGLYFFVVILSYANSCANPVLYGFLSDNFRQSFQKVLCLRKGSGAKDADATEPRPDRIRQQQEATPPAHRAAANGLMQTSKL

Structure (SMILES) | pIC50
CCOc1cc(CN2CCC3(CC2)CN(c2ccc(C(C)(C)C(=O)O)cc2)C(=O)O3)cc(OCC)c1-c1ccc(F)cc1 [Example 3-6, 2-(4-{8-[(2,6-Diethoxy-4′-fluorobiphenyl-4-yl)methyl]-2-oxo-1-oxa-3,8-diazaspiro[4.5]dec-3-yl}phenyl)-2-methylpropanoic acid, TFA salt] | 8.02
CCOc1cc(CN2CCC3(CC2)CN(c2ccc(-c4nn[nH]n4)cc2OC)C(=O)O3)cc(OCC)c1-c1ccc(F)cc1 [Example 3-7, 8-[(2,6-Diethoxy-4′-fluorobiphenyl-4-yl)methyl]-3-[2-methoxy-4-(2H-tetrazol-5-yl)phenyl]-1-oxa-3,8-diazaspiro[4.5]decan-2-one, TFA salt] | 8.15
CCOc1cc(CN2CCC3(CC2)CN(c2ccc(C4(C(=O)O)CC4)cc2)C(=O)O3)cc(OCC)c1-c1ccc(F)cc1 [Example 3-10, 1-(4-{8-[(2,6-Diethoxy-4′-fluorobiphenyl-4-yl)methyl]-2-oxo-1-oxa-3,8-diazaspiro[4.5]dec-3-yl}phenyl)cyclopropanecarboxylic acid, TFA salt] | 8.08
CCOc1cc(CN2CCC3(CC2)CN(c2ccc(O)nc2)C(=O)O3)cc(OCC)c1-c1ccc(F)cc1 [Example 3-13, 8-[(2,6-Diethoxy-4-fluorobiphenyl-4-yl)methyl]-3-(6-hydroxypyridin-3-yl)-1-oxa-3,8-diazaspiro[4.5]decan-2-one, TFA salt] | 8.42
CCOc1cc(CN2CCC3(CC2)CN(c2cccc(C(=O)O)c2)C(=O)O3)cc(OCC)c1-c1ccc(F)cc1 [Example 3-14, 3-{8-[(2,6-Diethoxy-4′-fluorobiphenyl-4-yl)methyl]-2-oxo-1-oxa-3,8-diazaspiro[4.5]dec-3-yl}benzoic acid, TFA salt] | 8.04

Compounds with a higher pIC50, results first:

pIC50 | Structure (SMILES)
8.67 | CCOc1cc(CN2CCC3(CC2)CN(c2cncc(C(=O)O)c2)C(=O)O3)cc(OCC)c1-c1ccc(F)cc1 [Example 3-5, 5-{8-[(2,6-Diethoxy-4′-fluorobiphenyl-4-yl)methyl]-2-oxo-1-oxa-3,8-diazaspiro[4.5]dec-3-yl}pyridine-3-carboxylic acid, TFA salt]
8.85 | CCOc1cc(CN2CCC3(CC2)CN(c2ccc(C(=O)O)c(C)c2)C(=O)O3)cc(OCC)c1-c1ccc(F)cc1 [Example 3-8, 4-{8-[(2,6-Diethoxy-4′-fluorobiphenyl-4-yl)methyl]-2-oxo-1-oxa-3,8-diazaspiro[4.5]dec-3-yl}-2-methylbenzoic acid, TFA salt]
8.92 | CCOc1cc(CN2CCC3(CC2)CN(c2ccc(C(=O)O)c(Cl)c2)C(=O)O3)cc(OCC)c1-c1ccc(F)cc1 [Example 3-9, 2-Chloro-4-{8-[(2,6-diethoxy-4′-fluorobiphenyl-4-yl)methyl]-2-oxo-1-oxa-3,8-diazaspiro[4.5]dec-3-yl}benzoic acid, TFA salt]
9.03 | CCOc1cc(CN2CCC3(CC2)CN(c2ccc(C(=O)O)cn2)C(=O)O3)cc(OCC)c1-c1ccc(F)cc1 [Example 3-11, 6-{8-[(2,6-Diethoxy-4′-fluorobiphenyl-4-yl)methyl]-2-oxo-1-oxa-3,8-diazaspiro[4.5]dec-3-yl}pyridine-3-carboxylic acid, TFA salt]
9.49 | CCOc1cc(CN2CCC3(CC2)CN(c2ccc(-c4nn[nH]n4)cc2)C(=O)O3)cc(OCC)c1-c1ccc(F)cc1 [Example 3-12, 8-[(2,6-Diethoxy-4′-fluorobiphenyl-4-yl)methyl]-3-[4-(2H-tetrazol-5-yl)phenyl]-1-oxa-3,8-diazaspiro[4.5]decan-2-one, TFA salt]
8.55 | CCOc1cc(CN2CCC3(CC2)CN(c2ccc(C(=O)O)c(C(F)(F)F)c2)C(=O)O3)cc(OCC)c1-c1ccc(F)cc1 [Example 3-15, 4-{8-[(2,6-Diethoxy-4′-fluorobiphenyl-4-yl)methyl]-2-oxo-1-oxa-3,8-diazaspiro[4.5]dec-3-yl}-2-(trifluoromethyl)benzoic acid, TFA salt]
